Holding throughout (experiment): biochemical
Parameters in all cases: KINOMEscan active site-directed competition binding assay (DiscoveRx), 456 kinases, per cent of control at 300 nM
Details in all cases: read-out: Percent of Control (%)

Test [1] addresses CSNK1G1 (Homo sapiens, UniProt Q9HCP0). In outline:
(§1)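 Active site-directed competition binding (KINOMEscan) across a 456-kinase panel, compounds tested at 300 nmol/L.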

Test [2] addresses RIOK2 (Homo sapiens, UniProt Q9BVS4). The method in brief:
as §1

Test [3] addresses SIK2 (Homo sapiens, UniProt Q9H0K1). In outline: as §1
Test [4] deals with TNNI3K (Homo sapiens, UniProt Q59H18). In outline:
as §1

Test [5] concerns the target ROCK1 (Homo sapiens, UniProt Q13464). In outline: as §1
Test [6] concerns the target T1, ABL1(Q252H)-phosphorylated (Homo sapiens, UniProt P00519, Q252H).
T1 construct: phosphorylated
In outline:
as §1

For test [7], the target named is PRKCH (Homo sapiens, UniProt P24723). In outline: as §1
PRKCH, sequence (P24723 whole entry): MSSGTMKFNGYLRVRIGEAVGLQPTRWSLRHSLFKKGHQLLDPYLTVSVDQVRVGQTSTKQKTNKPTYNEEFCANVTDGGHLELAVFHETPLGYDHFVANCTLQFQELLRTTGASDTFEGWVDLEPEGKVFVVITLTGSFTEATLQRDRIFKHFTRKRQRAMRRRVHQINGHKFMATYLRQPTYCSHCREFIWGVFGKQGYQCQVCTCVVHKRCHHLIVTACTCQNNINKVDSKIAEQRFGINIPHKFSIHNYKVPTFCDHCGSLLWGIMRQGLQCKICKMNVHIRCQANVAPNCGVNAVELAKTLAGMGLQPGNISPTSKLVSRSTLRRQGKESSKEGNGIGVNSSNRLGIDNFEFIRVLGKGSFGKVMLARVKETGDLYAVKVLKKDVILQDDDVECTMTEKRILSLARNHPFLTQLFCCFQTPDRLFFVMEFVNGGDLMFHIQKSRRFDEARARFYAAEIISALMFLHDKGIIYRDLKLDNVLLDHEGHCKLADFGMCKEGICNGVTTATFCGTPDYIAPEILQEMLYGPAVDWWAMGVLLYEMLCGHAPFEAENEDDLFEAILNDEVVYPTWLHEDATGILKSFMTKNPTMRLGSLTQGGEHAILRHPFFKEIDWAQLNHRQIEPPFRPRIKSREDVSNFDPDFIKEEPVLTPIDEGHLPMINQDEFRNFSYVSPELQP
Test [8] deals with DMPK (Homo sapiens, UniProt Q09013). The method in brief: as §1
DMPK, sequence (Q09013 whole entry): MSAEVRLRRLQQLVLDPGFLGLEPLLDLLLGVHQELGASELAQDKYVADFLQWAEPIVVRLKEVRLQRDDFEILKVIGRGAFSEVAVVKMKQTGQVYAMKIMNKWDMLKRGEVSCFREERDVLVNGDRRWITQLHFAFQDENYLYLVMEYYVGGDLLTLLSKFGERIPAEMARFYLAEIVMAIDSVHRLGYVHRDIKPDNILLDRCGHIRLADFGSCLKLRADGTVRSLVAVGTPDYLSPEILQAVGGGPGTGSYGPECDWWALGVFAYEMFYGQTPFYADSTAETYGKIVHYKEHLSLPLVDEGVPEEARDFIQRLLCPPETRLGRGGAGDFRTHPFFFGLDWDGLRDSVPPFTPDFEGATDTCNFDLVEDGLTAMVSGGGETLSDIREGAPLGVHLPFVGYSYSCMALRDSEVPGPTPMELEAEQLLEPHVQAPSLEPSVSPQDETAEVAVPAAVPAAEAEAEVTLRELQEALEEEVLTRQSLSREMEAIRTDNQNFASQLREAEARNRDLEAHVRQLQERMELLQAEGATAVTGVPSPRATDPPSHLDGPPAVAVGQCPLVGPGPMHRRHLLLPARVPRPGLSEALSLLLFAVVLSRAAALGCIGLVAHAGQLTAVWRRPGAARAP
Test [9] addresses CAMK2B (Homo sapiens, UniProt Q13554). The method in brief:
as §1

Test [10] has as its target STK39 (Homo sapiens, UniProt Q9UEW8). The method in brief:
as §1

The target in test [11] is NEK9 (Homo sapiens, UniProt Q8TD19). The method in brief: as §1
Test [12] concerns the target T2, p38-gamma (Homo sapiens, UniProt P53778).
T2 construct: gene MAPK12
The method in brief:
as §1

Test [13] concerns the target T3, TRKB (Homo sapiens, UniProt Q16620).
T3 construct: gene NTRK2
The method in brief:
as §1

Test [14] concerns the target TBK1 (Homo sapiens, UniProt Q9UHD2). The method in brief: as §1
Test [15] concerns the target PIK3CA(M1043I) (Homo sapiens, UniProt P42336, M1043I). The method in brief:
as §1

For test [16], the target named is CAMKK2 (Homo sapiens, UniProt Q96RR4). The method in brief:
as §1

Test [17] deals with T4, ABL1(T315I)-phosphorylated (Homo sapiens, UniProt P00519, T315I).
T4 construct: phosphorylated
In outline: as §1

Test [18] concerns the target TAOK3 (Homo sapiens, UniProt Q9H2K8). In outline:
as §1

Test [19] deals with T5, PIK4CB (Homo sapiens, UniProt Q9UBF8).
T5 construct: gene PI4KB
In outline: as §1

The target in test [20] is GSK3A (Homo sapiens, UniProt P49840). The method in brief:
as §1

Test [21] deals with FRK (Homo sapiens, UniProt P42685). The method in brief: as §1
Test [22] has as its target T6, p38-alpha (Homo sapiens, UniProt Q16539).
T6 construct: gene MAPK14
The method in brief: as §1

Like-named read-outs stand apart in the source and are kept apart here.

TAOK3, sequence (Q9H2K8 whole entry): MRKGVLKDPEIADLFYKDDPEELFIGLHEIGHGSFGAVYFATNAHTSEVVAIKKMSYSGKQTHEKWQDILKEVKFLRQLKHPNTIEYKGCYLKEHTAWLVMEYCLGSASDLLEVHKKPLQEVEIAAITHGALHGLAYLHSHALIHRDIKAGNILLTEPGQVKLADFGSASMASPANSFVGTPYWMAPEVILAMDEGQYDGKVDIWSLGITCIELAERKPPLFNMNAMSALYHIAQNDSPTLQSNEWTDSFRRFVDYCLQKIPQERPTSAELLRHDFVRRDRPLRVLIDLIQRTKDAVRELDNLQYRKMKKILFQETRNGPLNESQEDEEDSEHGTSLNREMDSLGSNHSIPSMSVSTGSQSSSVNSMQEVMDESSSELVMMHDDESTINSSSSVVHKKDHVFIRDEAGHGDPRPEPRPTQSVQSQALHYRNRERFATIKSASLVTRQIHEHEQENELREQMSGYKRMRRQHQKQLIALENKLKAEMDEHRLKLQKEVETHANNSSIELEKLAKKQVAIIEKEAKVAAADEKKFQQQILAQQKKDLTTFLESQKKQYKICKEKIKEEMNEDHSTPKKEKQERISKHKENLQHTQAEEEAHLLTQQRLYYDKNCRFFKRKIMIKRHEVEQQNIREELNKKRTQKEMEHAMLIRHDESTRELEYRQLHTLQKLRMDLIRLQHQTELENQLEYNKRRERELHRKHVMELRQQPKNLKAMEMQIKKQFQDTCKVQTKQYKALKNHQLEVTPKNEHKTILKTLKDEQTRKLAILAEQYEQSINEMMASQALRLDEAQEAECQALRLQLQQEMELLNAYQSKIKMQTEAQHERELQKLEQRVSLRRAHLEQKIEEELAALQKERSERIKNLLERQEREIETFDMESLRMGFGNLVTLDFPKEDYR
TNNI3K, sequence (Q59H18 whole entry): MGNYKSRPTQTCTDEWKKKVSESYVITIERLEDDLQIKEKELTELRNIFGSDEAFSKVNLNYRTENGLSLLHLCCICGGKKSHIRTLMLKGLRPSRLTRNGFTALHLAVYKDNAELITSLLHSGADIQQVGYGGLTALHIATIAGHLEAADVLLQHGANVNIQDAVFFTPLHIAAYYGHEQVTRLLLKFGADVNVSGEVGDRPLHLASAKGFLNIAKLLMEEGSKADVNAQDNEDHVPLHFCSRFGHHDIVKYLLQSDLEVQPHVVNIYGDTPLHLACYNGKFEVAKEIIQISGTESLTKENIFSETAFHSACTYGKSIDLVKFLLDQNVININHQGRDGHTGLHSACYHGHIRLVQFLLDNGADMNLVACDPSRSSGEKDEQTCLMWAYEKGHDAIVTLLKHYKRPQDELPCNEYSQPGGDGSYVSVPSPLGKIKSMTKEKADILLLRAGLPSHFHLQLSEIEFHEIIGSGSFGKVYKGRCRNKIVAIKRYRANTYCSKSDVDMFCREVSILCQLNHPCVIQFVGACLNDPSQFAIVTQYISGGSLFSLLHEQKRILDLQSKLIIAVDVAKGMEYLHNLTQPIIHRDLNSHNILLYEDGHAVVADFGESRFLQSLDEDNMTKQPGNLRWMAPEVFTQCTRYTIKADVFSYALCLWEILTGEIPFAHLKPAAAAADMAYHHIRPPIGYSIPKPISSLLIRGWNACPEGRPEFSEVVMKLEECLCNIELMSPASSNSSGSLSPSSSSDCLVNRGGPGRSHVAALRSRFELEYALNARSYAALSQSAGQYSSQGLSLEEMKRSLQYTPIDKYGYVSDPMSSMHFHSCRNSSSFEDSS
PIK3CA(M1043I), sequence (P42336 whole entry M1043I): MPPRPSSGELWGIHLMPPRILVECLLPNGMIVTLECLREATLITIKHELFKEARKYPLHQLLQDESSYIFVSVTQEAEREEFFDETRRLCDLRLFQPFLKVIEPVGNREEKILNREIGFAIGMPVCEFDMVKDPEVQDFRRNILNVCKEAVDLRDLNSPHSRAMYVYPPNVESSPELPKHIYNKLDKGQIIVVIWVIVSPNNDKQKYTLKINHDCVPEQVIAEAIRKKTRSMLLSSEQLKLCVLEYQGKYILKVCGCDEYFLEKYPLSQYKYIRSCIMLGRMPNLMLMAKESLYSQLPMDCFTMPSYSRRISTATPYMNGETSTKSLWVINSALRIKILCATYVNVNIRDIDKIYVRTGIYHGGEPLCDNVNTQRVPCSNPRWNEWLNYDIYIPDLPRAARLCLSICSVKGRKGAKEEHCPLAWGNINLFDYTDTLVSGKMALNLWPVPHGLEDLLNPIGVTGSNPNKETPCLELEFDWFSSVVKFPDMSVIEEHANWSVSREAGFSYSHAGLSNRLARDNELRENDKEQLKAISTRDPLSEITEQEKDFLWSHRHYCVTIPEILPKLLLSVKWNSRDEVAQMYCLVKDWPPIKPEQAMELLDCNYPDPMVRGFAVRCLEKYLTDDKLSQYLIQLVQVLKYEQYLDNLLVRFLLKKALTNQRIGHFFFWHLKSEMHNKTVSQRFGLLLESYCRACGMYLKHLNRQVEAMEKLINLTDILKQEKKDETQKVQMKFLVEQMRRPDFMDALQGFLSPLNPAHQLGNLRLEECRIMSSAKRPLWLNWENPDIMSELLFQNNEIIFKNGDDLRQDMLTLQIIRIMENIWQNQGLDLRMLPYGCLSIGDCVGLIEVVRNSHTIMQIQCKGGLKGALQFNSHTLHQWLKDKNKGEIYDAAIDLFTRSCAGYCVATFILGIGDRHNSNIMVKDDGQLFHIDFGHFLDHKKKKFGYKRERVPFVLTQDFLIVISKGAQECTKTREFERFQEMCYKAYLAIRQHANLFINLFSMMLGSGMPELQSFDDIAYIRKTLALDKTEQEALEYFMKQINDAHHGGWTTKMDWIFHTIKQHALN
RIOK2, sequence (Q9BVS4 whole entry): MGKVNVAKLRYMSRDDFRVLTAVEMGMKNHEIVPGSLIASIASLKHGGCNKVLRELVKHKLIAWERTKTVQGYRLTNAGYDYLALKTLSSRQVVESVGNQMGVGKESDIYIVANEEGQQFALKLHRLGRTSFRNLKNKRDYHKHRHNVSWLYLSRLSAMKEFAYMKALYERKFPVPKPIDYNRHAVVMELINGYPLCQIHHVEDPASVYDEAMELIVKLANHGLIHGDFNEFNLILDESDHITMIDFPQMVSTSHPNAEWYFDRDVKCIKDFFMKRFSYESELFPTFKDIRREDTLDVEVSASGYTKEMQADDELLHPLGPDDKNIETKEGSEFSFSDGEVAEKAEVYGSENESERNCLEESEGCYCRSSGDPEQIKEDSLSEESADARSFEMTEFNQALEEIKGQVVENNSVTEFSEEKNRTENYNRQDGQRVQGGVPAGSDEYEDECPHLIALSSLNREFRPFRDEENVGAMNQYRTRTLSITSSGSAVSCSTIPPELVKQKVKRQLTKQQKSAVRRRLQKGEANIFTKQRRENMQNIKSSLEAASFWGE
T2 sequence (P53778 whole entry): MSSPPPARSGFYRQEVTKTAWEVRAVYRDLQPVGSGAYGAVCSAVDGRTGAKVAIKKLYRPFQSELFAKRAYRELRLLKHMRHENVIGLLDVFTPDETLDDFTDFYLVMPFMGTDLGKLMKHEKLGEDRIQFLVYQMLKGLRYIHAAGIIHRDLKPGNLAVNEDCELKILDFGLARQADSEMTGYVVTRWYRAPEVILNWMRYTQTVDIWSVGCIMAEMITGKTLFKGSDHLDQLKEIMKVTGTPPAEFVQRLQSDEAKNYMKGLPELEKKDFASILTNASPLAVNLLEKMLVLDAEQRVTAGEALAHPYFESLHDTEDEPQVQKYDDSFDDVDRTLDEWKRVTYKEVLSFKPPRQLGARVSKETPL

Regarding `O=C(/C=C/c1cnccc1-c1ccc(F)cc1)Nc1ccc(CCc2nnco2)cc1` [T-418, (2E)-3-(4-(4-fluorophenyl)pyridin-3-yl)-N-(4-(2-(1,3,4-oxadiazol-2-yl)ethyl)phenyl)acrylamide], the remaining binding at 0.3 µM in test [1] (sheet T-418) worked out at 97%; in [2] (sheet T-418) it was 99%; in test [3] (sheet T-418) it was 100%; in test [4] (sheet T-418), 100%; in [5] (sheet T-418), 81%; in [6] (sheet T-418), 84%. The remaining binding at 0.3 µM in test [7] (sheet T-418) stood at 88%; in test [8] (sheet T-418), 91%; in [9] (sheet T-418), 84%; in test [10] (sheet T-418), 100%; in [11] (sheet T-418) it was 100%; in [12] (sheet T-418), 86%. For the same molecule, the remaining binding at 0.3 µM in test [13] (sheet T-418) came to 100%; in test [14] (sheet T-418) it was 75%; in test [15] (sheet T-418) it was 100%; in test [16] (sheet T-418), 100%; in test [17] (sheet T-418) it was 100%; in test [18] (sheet T-418), 90%. Further, the remaining binding at 0.3 µM in test [19] (sheet T-418) was determined as 100%; in [20] (sheet T-418), 64%; in test [21] (sheet T-418) it was 97%; in test [22] (sheet T-418) it was 100%.

Regarding `Cc1ncccc1Oc1sc(C(N)=O)c2c1-c1c(cnn1C)CC2` [T-474, 1-methyl-8-((2-methylpyridin-3-yl)oxy)-4,5-dihydro-1H-thieno[3,4-g]indazole-6-carboxamide], the remaining binding at 0.3 µM in test [1] was determined as 79%; in test [2], 87%; in test [3], 100%; in test [4], 95%; in test [5], 100%; in test [6], 89%. Moreover, the remaining binding at 0.3 µM in [7] turned out to be 100%; in test [8], 98%; in test [9] it was 99%; in test [10] it was 100%; in [11], 100%; in [12], 100%. The remaining binding at 0.3 µM in test [13] turned out to be 92%; in test [14] it was 67%; in test [15], 100%; in test [16] it was 100%; in [17], 100%; in test [18], 88%. Besides, the remaining binding at 0.3 µM was found to be 100% in test [19], 70% in test [20], 97% in test [21] and 99% in [22].

For the origin of these results see paper PMC5862592, “CDK8/19 inhibition induces premature G1/S transition and ATR-dependent cell death in prostate cancer cells” (Oncotarget, 2018).
